# Test results taken from patent US11084826B2, “RSV antiviral pyrazolo- and triazolo-pyrimidine compounds” (Janssen Sciences Ireland Unlimited Company, priority 2015, dated 2021).
# How the values were obtained:
# [1] = tested on: rgRSV224 virus; assay: Antiviral activity: inhibition of rgRSV224 (GFP-expressing RSV) replication in HeLa cells, GFP expression read-out; type: cell-based, respiratory syncytial virus (RSV); settings: human respiratory syncytial virus, HeLa, read-out: RSV HELA pEC50, rgRSV224 virus (MOI=1) in HeLa cells, GFP read-out (converted)
# Experimental: (§1) Black 384-well clear-bottom microtiter plates (Corning, Amsterdam, The Netherlands) were filled via acoustic drop ejection using the echo liquid handler (Labcyte, Sunnyvale, Calif.). 200 nL of compound stock solutions (100% DMSO) were transferred to the assay plates. 9 serial 4-fold dilutions of compound were made, creating per quadrant the same compound concentration. The assay was initiated by adding 10 μL of culture medium to each well (RPMI medium without phenol red, 10% FBS-heat inactivated, 0.04% gentamycin (50 mg/mL). All addition steps are done by using a multidrop dispenser (Thermo Scientific, Erembodegem, Belgium). Next, rgRSV224 virus (MOI=1) diluted in culture medium was added to the plates. rgRSV224 virus is an engineered virus that includes an additional GFP gene (Hallak LK, Spillmann D, Collins PL, Peeples Me. Glycosaminoglycan sulfation requirements for respiratory syncytial virus infection; Journal of virology (2000), 74(22), 10508-13) and was in-licensed from the NIH (Bethesda, Md., USA). Finally, 20 μL of a HeLa cell suspension (3,000 cells/well) were plated. Medium, virus- and mock-infected controls were included in each test. The wells contain 0.05% DMSO per volume. Cells were incubated at 37° C. in a 5% CO2 atmosphere. Three days post-virus exposure, viral replication was quantified by measuring GFP expression in the cells by an in house developed MSM laser microscope (Tibotec, Beerse, Belgium). The EC50 was defined as the 50% inhibitory concentration for GFP expression. In parallel, compounds were incubated for three days in a set of white 384-well microtiter plates (Corning) and the cytotoxicity of compounds in HeLa cells was determined by measuring the ATP content of the cells using the ATPlite kit (Perkin Elmer, Zaventem, Belgium) according to the manufacturer's instructions. The CC50 was defined as the 50% concentration for cytotoxicity.
# [2] = Cytotoxicity in HeLa cells, ATP content measured with the ATPlite kit; type: cell-based; settings: human, TOX HELA pCC50
# Experimental: as §1
smiles,measurement,setting,value
C[C@@H]1CCCCCN1C(=O)c1cc(C2(C)COC2)n2nc(-c3cccc(/C=C/C(=O)O)c3F)cc2n1 [Compound M33],EC50,[1],102 nM
same,CC50 at 3 days,[2],> 100000 nM
CCc1cc(C(=O)N2CCCCC[C@H]2C)nc2cc(-c3ccc(-n4cc(C(=O)O)c(C)n4)cc3F)nn12 (racemic) [Compound W25],EC50,[1],93.3 nM
same,CC50 at 3 days,[2],66100 nM
"CCc1cc(C(=O)N2CCCCC[C@H]2C)nc2cc(-c3ccc(C4C[C@H]4C(=O)O)cc3F)nn12 (single isomer, unassigned) [Compound O2]",EC50,[1],58.9 nM
same,CC50 at 3 days,[2],> 25100 nM
CCc1cc(C(=O)N2CCCc3ccccc3C2C)nc2cc(-c3ccc(/C=C/C(=O)O)cc3F)nn12 (centres unmarked) [Compound M18],EC50,[1],77.6 nM
same,CC50 at 3 days,[2],> 25100 nM
C[C@@H]1CCCCCN1C(=O)c1cc(C2CC2)n2nc(-c3cccc(/C=C/C(=O)O)c3F)cc2n1 [Compound M28],EC50,[1],93.3 nM
same,CC50 at 3 days,[2],17800 nM
CC1CCCCCN1C(=O)c1cc(CC2CCCCC2)n2nc(-c3ccccc3F)cc2n1 (centres unmarked) [Compound A20],EC50,[1],6310 nM
same,CC50 at 3 days,[2],> 25100 nM
CCc1cc(C(=O)N2CCc3sc(C)cc3C2C)nc2cc(-c3ccc(-c4ccc(C(=O)O)cn4)cc3F)nn12 (racemic) [Compound F58],EC50,[1],170 nM
same,CC50 at 3 days,[2],26300 nM
CC1c2ccsc2CCN1C(=O)c1cc(C2(C)CC2)n2nc(-c3ccc4c(c3F)OCC(C(=O)O)=C4)cc2n1 (racemic) [Compound F67],EC50,[1],39.8 nM
same,CC50 at 3 days,[2],67600 nM
CCc1cc(C(=O)N2CCCCCC2C)nc2cc(-c3ccc(-c4cnc(C)n4C)cc3F)nn12 (centres unmarked) [Compound F11],EC50,[1],1350 nM
same,CC50 at 3 days,[2],> 25100 nM
CCc1cc(C(=O)N2CCCCCC2C)nc2cc(-c3ccc(/C=C(\C)C(=O)O)cc3F)nn12 (centres unmarked) [Compound M13],EC50,[1],224 nM
same,CC50 at 3 days,[2],> 25100 nM
CCCC(C)N(CC)C(=O)c1cc(CC)n2nc(-c3ccc(C4C[C@H]4C(=O)O)cc3F)cc2n1 (mixture of isomers) [Compound O13],EC50,[1],141 nM
same,CC50 at 3 days,[2],45700 nM
CCc1cc(C(=O)N2CCc3ccsc3C2C)nc2cc(-c3ccc(-c4ccc(C(=O)O)cn4)cc3F)nn12 (racemic) [Compound F55],EC50,[1],120 nM
same,CC50 at 3 days,[2],> 100000 nM
C[C@@H]1c2ccccc2CCN1C(=O)c1cc(C2(C)CC2)n2nc(-c3ccc(C4C[C@H]4C(=O)O)cc3F)cc2n1 (mixture of isomers) [Compound O8],EC50,[1],11.7 nM
same,CC50 at 3 days,[2],49000 nM
CCc1cc(C(=O)N2CCCC3(CC=CC3)C2C)nc2cc(-c3ccc(-c4ccc(C(=O)O)cn4)cc3F)nn12 (racemic) [Compound F50],EC50,[1],324 nM
same,CC50 at 3 days,[2],60300 nM
CCc1cc(C(=O)N2CCCCC[C@H]2C)nc2cc(-c3ccc(N(C)CC(=O)O)cc3F)nn12 [Compound W19],EC50,[1],263 nM
same,CC50 at 3 days,[2],> 100000 nM
CCCC(C)N(CC)C(=O)c1cc(CC)n2nc(-c3ccc([C@H]4C[C@@H]4C(=O)O)cc3F)cc2n1 (relative stereo) [Compound O14],EC50,[1],219 nM
same,CC50 at 3 days,[2],66100 nM
CCc1cc(C(=O)N2CCc3ccccc3[C@H]2C)nc2cc(-c3ccc(/C=C/C(=O)O)cc3F)nn12 [Compound M15],EC50,[1],15.1 nM
same,CC50 at 3 days,[2],> 20400 nM
CCc1cc(C(=O)N2CCCCC[C@H]2C)nc2cc(-c3cc4ccc(C(=O)O)nc4cc3F)nn12 [Compound F33],EC50,[1],91.2 nM
same,CC50 at 3 days,[2],66100 nM
C[C@@H]1CCCCCN1C(=O)c1cc(C2(C)CC2)n2nc(-c3ccc(N4CC[C@H](C(=O)O)C4)cc3F)cc2n1 [Compound W30],EC50,[1],17.4 nM
same,CC50 at 3 days,[2],50100 nM
CCc1cc(C(=O)N2CCCCC[C@H]2C)nc2cc(-c3ccc(N4CC(C(=O)O)C4)cc3F)nn12 [Compound W1],EC50,[1],64.6 nM
same,CC50 at 3 days,[2],> 25100 nM
CCc1cc(C(=O)N2CCCCC[C@H]2C)nc2cc(-c3ccc(N4CCC[C@H](C(=O)O)C4)cc3F)nn12 [Compound W5],EC50,[1],89.1 nM
same,CC50 at 3 days,[2],95500 nM
CCc1cc(C(=O)N2CCc3ccccc3C2C)nc2cc(-c3ccc(-c4ccc(C(=O)O)nc4)cc3F)nn12 (centres unmarked) [Compound F22],EC50,[1],35.5 nM
same,CC50 at 3 days,[2],6920 nM
CCc1cc(C(=O)N2CCCCC[C@H]2C)nc2cc(-c3ccc([C@H]4CC[C@H](C(=O)O)CC4)cc3F)nn12 [Compound F37],EC50,[1],182 nM
same,CC50 at 3 days,[2],38000 nM
CCc1cc(C(=O)N2CCCCCC2C)nc2cc(-c3ccc(-c4c[nH]cn4)cc3F)nn12 (centres unmarked) [Compound F16],EC50,[1],145 nM
same,CC50 at 3 days,[2],> 25100 nM
CCc1cc(C(=O)N2CCCn3cccc3C2C)nc2cc(-c3ccc(-c4ccc(C(=O)O)cn4)cc3F)nn12 (racemic) [Compound F59],EC50,[1],191 nM
same,CC50 at 3 days,[2],> 25100 nM
CCc1cc(C(=O)N2CCc3ccccc3C2C)nc2cc(-c3ccc(/C=C(\C)C(=O)O)cc3F)nn12 (centres unmarked) [Compound M17],EC50,[1],63.1 nM
same,CC50 at 3 days,[2],17400 nM
CCc1cc(C(=O)N2CCCCCC2C)nc2cc(-c3ccc(C4CC4C(=O)O)cc3F)nn12 (centres unmarked) [Compound O1],EC50,[1],123 nM
same,CC50 at 3 days,[2],> 25100 nM
CCCCc1nc(Cl)c(-c2cc3nc(C(=O)N4CCCCCC4C)cc(CC)n3n2)[nH]1 (centres unmarked) [Compound A22],EC50,[1],603 nM
same,CC50 at 3 days,[2],> 25100 nM
CCc1cc(C(=O)N2CCCCC[C@H]2C)nc2cc(-c3ccc(-c4cnc(C(=O)O)c(F)c4)cc3F)nn12 [Compound F19],EC50,[1],97.7 nM
same,CC50 at 3 days,[2],36300 nM
CCc1cc(C(=O)N2CCCCCC2C)nc2cc(C3CCCCC3)nn12 (centres unmarked) [Compound A5],EC50,[1],4790 nM
same,CC50 at 3 days,[2],33100 nM
CCc1cc(C(=O)N2CCCCC[C@H]2C)nc2cc(-c3ccc(C4CC5(CC(C(=O)O)C5)C4)cc3F)nn12 (some centres unmarked) [Compound F47],EC50,[1],245 nM
same,CC50 at 3 days,[2],46800 nM
CCc1cc(C(=O)N2CCCCC[C@H]2C)nc2cc(-c3ccc(-c4ccnc(C(=O)O)c4)cc3F)nn12 [Compound F25],EC50,[1],43.7 nM
same,CC50 at 3 days,[2],13500 nM
CCc1cc(C(=O)N2CCCCCC2C)nc2cc(-c3ccc(-c4cncn4C)cc3F)nn12 (centres unmarked) [Compound F13],EC50,[1],562 nM
same,CC50 at 3 days,[2],> 25100 nM
CCc1cc(C(=O)N2CCCCC[C@H]2C)nc2cc(-c3ccc(-c4cc(=O)[nH]o4)cc3F)nn12 [Compound X1],EC50,[1],93.3 nM
same,CC50 at 3 days,[2],> 25100 nM
CCc1cc(C(=O)N2CCCCCC2C)nc2cc(-c3cc(NC(=O)C4CC4)ccc3F)nn12 (centres unmarked) [Compound E12],EC50,[1],447 nM
same,CC50 at 3 days,[2],60300 nM
CCc1cc(C(=O)N2CCCCCC2C)nc2cc(-c3ccc(NS(=O)(=O)C4CC4)cc3F)nn12 (centres unmarked) [Compound D2],EC50,[1],603 nM
same,CC50 at 3 days,[2],> 50100 nM
C[C@@H]1CCCCCN1C(=O)c1cc(C2CCC2)n2nc(-c3ccc(-c4ccc(C(=O)O)cn4)cc3F)cc2n1 [Compound F32],EC50,[1],28.2 nM
same,CC50 at 3 days,[2],32400 nM
CCc1cc(C(=O)N2CCn3cccc3C2C)nc2cc(-c3ccc4c(c3F)OCC(C(=O)O)=C4)nn12 (racemic) [Compound F61],EC50,[1],45.7 nM
same,CC50 at 3 days,[2],> 100000 nM
C[C@@H]1CCCCCN1C(=O)c1cc(C2CC2)n2nc(-c3ccc4c(c3F)OCC(C(=O)O)=C4)cc2n1 [Compound F38],EC50,[1],51.3 nM
same,CC50 at 3 days,[2],36300 nM
CCc1cc(C(=O)N2CCc3ccccc3[C@H]2C)nc2cc(-c3ccc(-c4ccc(C(=O)O)cn4)cc3F)nn12 [Compound F23],EC50,[1],40.7 nM
same,CC50 at 3 days,[2],> 25100 nM
C[C@@H]1CCCCCN1C(=O)c1cc(C2CC2)n2nc(-c3cccc([C@H]4C[C@@H]4C(=O)O)c3F)cc2n1 [Compound O6],EC50,[1],148 nM
same,CC50 at 3 days,[2],97700 nM
C[C@@H]1c2ccsc2CCN1C(=O)c1cc(C2(C)CC2)n2nc(-c3ccc(N4CC[C@H](C(=O)O)C4)cc3F)cc2n1 [Compound W44],EC50,[1],8.71 nM
same,CC50 at 3 days,[2],49000 nM
CCc1cc(C(=O)N2CCn3c(Cl)ccc3C2C)nc2cc(-c3ccc(-c4ccc(C(=O)O)cn4)cc3F)nn12 (racemic) [Compound F56],EC50,[1],155 nM
same,CC50 at 3 days,[2],> 100000 nM
CCc1cc(C(=O)N2CCCCC[C@H]2C)nc2cc(-c3ccc(-c4ccc(C(=O)O)nc4)cc3F)nn12 [Compound F24],EC50,[1],69.2 nM
same,CC50 at 3 days,[2],12600 nM
CCc1cc(C(=O)N2CCCCC[C@H]2C)nc2cc(-c3ccc(C4[C@@H](C(=O)O)C4(F)F)cc3F)nn12 (mixture of isomers) [Compound O18],EC50,[1],191 nM
same,CC50 at 3 days,[2],53700 nM
CCc1cc(C(=O)N2CCCCC[C@H]2C)nc2cc(-c3ccc(-n4cnc(C(=O)O)c4)cc3F)nn12 [Compound W29],EC50,[1],363 nM
same,CC50 at 3 days,[2],> 100000 nM
CCc1cc(C(=O)N2CCCCC[C@H]2C)nc2cc(-c3ccc(N(C)c4cc(C(=O)O)nn4C)cc3F)nn12 [Compound W21],EC50,[1],1020 nM
same,CC50 at 3 days,[2],21900 nM
C[C@@H]1c2ccccc2CCN1C(=O)c1cc(N2CCCC2)n2nc(-c3ccc(/C=C/C(=O)O)cc3F)cc2n1 [Compound M16],EC50,[1],13.2 nM
same,CC50 at 3 days,[2],16600 nM
C[C@@H]1CCCCCN1C(=O)c1cc(C2CCC2)n2nc(-c3ccc(N4CC[C@H](C(=O)O)C4)cc3F)cc2n1 [Compound W31],EC50,[1],12.6 nM
same,CC50 at 3 days,[2],49000 nM
